The subject of assay [1] is mice administered with β-amyloid(1-42). The experiment in a line: Passive avoidance test in mice given β-amyloid(1-42) into the cerebral ventricle. Format: in vivo, mouse. The settings on record: for dementia-preventive effect in passive avoidance test: FIGS. 7A and 7B. On the procedure:
(§1) The administration of β-amyloid(1-42) to a mouse was carried out in accordance with the method described by Laursen & Belknap(J. Pharmacol. Methods, 16, 355-357 (1986)). Specifically, 5 μl of phosphate-buffered saline containing 1.85 μg of β-amyloid(1-42) was put in a 50 μl Hamilton syringe fitted with a 26 gauge needle, the tip of the needle was inserted into the bregma of the mouse and then the β-amyloid(1-42) solution was administered thereto. Each mouse of a control group received an equal amount of β-amyloid(42-1) in place of β-amyloid(1-42). A passive avoidance test was carried out at days 1-2 (day 1: training, day 2: test) and a Y-maze test, at days 3-4 (day 3: training, day 4: test) after the administration.
In order to examine the learning and memory-retention ability of a mouse, a passive avoidance test was carried out in accordance with the method described in Song et al., J. Neurochem., 71, 875-878 (1998), as follows.
A passive avoidance case equipped with a light room and a dark room was prepared, the floor of the dark room being designed to deliver an electrical shock to a test animal. First, a mouse was put in the light room and, upon entering the dark room, it received an electrical shock at 0.25 mA for 1 sec. Twenty-four hours after the training, the mouse was put in the light room again and the time it took to enter the dark room was measured as a passive avoidance time. The maximum time was set at 300 sec., i.e., in case when the mouse took more than 300 sec. to enter the dark room, the passive avoidance time was determined to be 300 sec.
Forty 4- to 5-week old mice each weighing 20 to 25 g were divided into four groups of equal number. The Angelicae gigas Nakai extract prepared in Example 1 was dissolved in water to concentrations of 0.08% (w/v) and 0.1% (w/v), respectively, and the mice of two groups were provided with the resulting solutions instead of water for 4 weeks at a daily dose of 8 ml of the solution/mouse. The mice of the other two groups were provided with normal drinking water for 4 weeks. Thereafter, the mice of one of the two normal drinking water groups were administered into their cerebral ventricle with 1.85 μg of β-amyloid(42-1) (“control group”) and the mice of the remaining three groups, with β-amyloid(1-42) (Aβ1-42), as in Reference Example 1. Then, a passive avoidance test was carried out for each group of mice as in Reference Example 2 and the data attained were averaged for each group.
Fifty 4- to 5-week old mice each weighing 20 to 25 g were divided into five groups by equal number. Ferulic acid was dissolved in water to concentrations of 0.002 % (w/v), 0.004 % (w/v) and 0.006 % (w/v), respectively, and the mice of three groups were provided with the resulting solutions instead of water for 4 weeks at a daily dose of 8 ml of the solution/mouse. The mice of the other two groups were provided with normal drinking water for 4 weeks. Thereafter, the mice of one of two normal drinking water groups were administered into their cerebral ventricle with 1.85 μg of β-(42-1) (“control group”) and the mice of the remaining four groups, with β-amyloid(1-42) (Aβ1-42), as in Reference Example 1. Then, a passive avoidance test was carried out for each group of mice as in Reference Example 2 and the data attained were averaged for each group.
Forty 4- to 5-week old mice each weighing 20 to 25 g were divided into four groups of equal number. […]

Assay [2] has the same test system. The assay is described as follows: Y-maze test in mice given β-amyloid(1-42) into the cerebral ventricle. Format: in vivo, mouse. The settings on record: for alternation behavior (%): compared with the group given β-amyloid(1-42) only. The protocol: as §1
Spontaneous alternation behavior of a mouse was examined by a Y-maze test in accordance with the method described in Starter et al., Psychopharmacology, 94, 491-495 (1988) as follows.
The Y-maze consisted of three arms shaped like Y. A test mouse was placed in one of the arms such that it faced the arm's terminal and allowed to roan freely through the three arms for […]. The number of alternation was determined by counting the number of occasions the mouse passed the three arms consecutively. Spontaneous alternation behavior was determined as the percentage of the alternation number based on the total number of arm entries.
Further, Y-maze tests were carried out employing the above-prepared mice as in Reference Example 3.
Forty 4- to 5-week old mice each weighing 20 to 25 g were divided into four groups of equal number. Decursinol was dissolved in corn oil, mixed with a mouse fodder, and the mice of two groups were provided with the resulting fodder for 4 weeks at a daily dose of 7.5 mg decursinol/kg or 15 mg decursinol/kg. The mice of the other two groups were provided with a normal mouse fodder containing an equal amount of corn oil as above for 4 weeks. Thereafter, the mice of one of the two normal fodder groups were administered, into their cerebral ventricle, with 1.85 μg of β-(42-1) (“control group”) and the mice of the remaining three groups, with β-amyloid(1-42) (Aβ1-42), as in Reference Example 1. Then, a passive avoidance test and a Y-maze test were carried out for each group of mice as in Reference Examples 2 and 3, respectively, and the data attained were averaged for each group.

For assay [3], the system named is OX-42. The assay is described as follows: Immunohistochemical staining of OX-42 in pyriform cortex and amygdaloid nucleus. The class given is in vivo, mouse. The following applies: 0.006% (w/v) in drinking water for 4 weeks; 1 day after β-amyloid(1-42); compared with β-amyloid(1-42) only; FIGS. 8c and 8f. The protocol:
4- to 5-week old mice each weighing 20 to 25 g was divided into three groups. Ferulic acid was dissolved in water to a concentration of 0.006% (w/v), and the mice of one group were provided with the resulting solution instead of water for 4 weeks. The mice of other two groups were provided with normal drinking water for 4 weeks. Thereafter, the mice of one of two normal drinking water groups were administered, into their cerebral ventricle, with 1.85 μg of β-amyloid(42-1) (“control group”) and the mice of the remaining two groups, with β-amyloid(1-42) (Aβ1-42), as in Reference Example 1.
One day after the administration of β-amyloid, each of the mice was anesthetized with sodium pentobarbital and its abdomen was incised. The mouse was fixed by passing 4% paraformaldehyde through its left ventricle and its brain was excised.
In accordance with the method described in Cho et al., J. Comp. Neurol., 369: 264-276(1996), a section was prepared from the excised brain and immunohistochemical staining was carried out in order to stain […] in the pyriform cortex and the amygdaloid nucleus by employing 1:500 dilution of anti-OX-42 antibody (Halan (Sera-Lab)).

Assay [4] has as its system choline acetyltransferase (ChAT). The experiment in a line: Immunohistochemical staining of ChAT in septal nucleus. The following applies: 0.006% (w/v) in drinking water for 4 weeks; 5 days after β-amyloid(1-42); FIG. 9c. Format: in vivo, mouse. On the procedure:
Three groups of mice were administered with ferulic acid and/or β-amyloid in accordance with the method of (1). 5 days after the administration of β-amyloid, immunohistochemical staining was carried out according to the method of (1) except for employing 1:750 dilution of anti-choline-acetyltransferase (ChAT) antibody (Chemicon) in order to stain ChAT, an enzyme for acetylcholine synthesis, in the septal nucleus wherein acetylcholine neurons are distributed.

Assay [5] has as its system primary mouse cortical culture. The assay is described as follows: β-amyloid(1-42)-induced leakage of lactate dehydrogenase (LDH) from cultured neurons. Format: cell-based. The following applies: 100 μM, 30 minutes before 25 μM β-amyloid(1-42); 24 and 48 hours; compared with β-amyloid(1-42) group; FIG. 10.
Procedure: The culture of mouse cerebral neurons was divided into three groups. Neurons of one group received no treatment (control group). […] The degree of damage in neurons was determined by measuring the concentration of lactate dehydrogenase (LDH), which was released from the damaged or disrupted neurons into the culture medium, in accordance with the method of Wie et al. Samples of the culture medium were taken at 24 and 48 hours after the administration of β-amyloid(1-42), respectively, and their LDH concentrations were measured with a microplate reader.

As for `CC1(C)Oc2cc3oc(=O)ccc3cc2C[C@@H]1O` [decursinol], the “decrease in the passive avoidance response time due to β-amyloid(1-42)” value in assay [1] (7.5 or 15 mg/kg daily in fodder for 4 weeks, FIG. 6A) is recorded as “prevented”. Also, in assay [1] (alone in a low amount: 2 mg/kg or 3 mg/kg decursinol), the “dementia-preventive effect in passive avoidance test” value is recorded as “no dementia-preventive effect”. Also, the “number of arm entries (spontaneous movement)” value in assay [2] (7.5 or 15 mg/kg daily in fodder for 4 weeks, FIG. 6C) was “nearly the same for all groups”. Also, the “alternation behavior (%)” value in assay [2] (7.5 or 15 mg/kg daily in fodder for 4 weeks, FIG. 6B) is “higher and increased dose-dependently”.
As for `COc1cc(/C=C/C(=O)O)ccc1O` [ferulic acid], the “decrease in the passive avoidance response time” value in assay [1] (0.002, 0.004 and 0.006% (w/v) in drinking water for 4 weeks before β-amyloid(1-42), FIG. 3A) is “prevented dose-dependently”. In assay [1] (0.006% (w/v) in drinking water for 1, 2, 3 and 4 weeks, FIG. 3B), the “passive avoidance response time” value is “becomes increasingly higher with the period of administration”. In addition, the “dementia-preventive effect in passive avoidance test” value in assay [1] (alone in a low amount: 0.002% or 0.003% (w/v) ferulic acid) is recorded as “no dementia-preventive effect”. Moreover, the “number of arm entries (spontaneous movement)” value in assay [2] (0.006% (w/v) for 1 to 4 weeks, FIG. 4B) is recorded as “nearly the same for all groups”. In assay [2] (0.006% (w/v) for 1 to 4 weeks, FIG. 4A), the “alternation behavior (%)” value was “higher and increased in proportion to the period of administration”. For the same compound, in assay [3], the OX-42 staining entry was “much less pronounced”. Further, in assay [4], the ChAT staining result is given as “the decrease was suppressed”. The “LDH concentration in culture medium” value in assay [5] is recorded as “much lower”.

Source of the values: US20020168436A1, “Decursinol or derivative thereof as analgesic agent” (priority 2000, published 2002).
